Results taken from US10532985B2, “Heterocycle and carbocycle derivatives having TRKA inhibitory activity” (Shionogi & Co., Ltd., priority 2014, dated 2020).

Experiments:
[1] = Test Example 9-2: Metabolism Stability Test; type: in vitro ADME; details: human liver microsomes 0.5 mg protein/mL, 30 minutes, 37° C., 1 mmol/L NADPH
Protocol: (§1) Using commercially available pooled human hepatic microsomes, a compound of the present invention was reacted for a constant time, and a remaining rate was calculated by comparing a reacted sample and an unreacted sample, thereby, a degree of metabolism in liver was assessed.
(§2) A reaction was performed (oxidative reaction) at 37° C. for 0 minute or 30 minutes in the presence of 1 mmol/L NADPH in 0.2 mL of a buffer (50 mmol/L Tris-HCl pH 7.4, 150 mmol/L potassium chloride, 10 mmol/L magnesium chloride) containing 0.5 mg protein/mL of human liver microsomes. After the reaction, 50 μL of the reaction solution was added to 100 μL of a methanol/acetonitrile=1/1 (v/v), mixed and centrifuged at 3000 rpm for 15 minutes. The compound of the present invention in the supernatant was quantified by LC/MS/MS or Solid Phase Extraction (SPE)/MS, and a remaining amount of the compound of the present invention after the reaction was calculated, letting a compound amount at 0 minute reaction time to be 100%.

human TrkA [2] = target: T1, human TrkA (Homo sapiens, UniProt P04629); experiment: Test Example 2: Human TrkA Inhibition Assay; type: biochemical; details: Test Example 2
T1 construct: purchased Lifetechnologies PV3144
T1 sequence (P04629 33-796): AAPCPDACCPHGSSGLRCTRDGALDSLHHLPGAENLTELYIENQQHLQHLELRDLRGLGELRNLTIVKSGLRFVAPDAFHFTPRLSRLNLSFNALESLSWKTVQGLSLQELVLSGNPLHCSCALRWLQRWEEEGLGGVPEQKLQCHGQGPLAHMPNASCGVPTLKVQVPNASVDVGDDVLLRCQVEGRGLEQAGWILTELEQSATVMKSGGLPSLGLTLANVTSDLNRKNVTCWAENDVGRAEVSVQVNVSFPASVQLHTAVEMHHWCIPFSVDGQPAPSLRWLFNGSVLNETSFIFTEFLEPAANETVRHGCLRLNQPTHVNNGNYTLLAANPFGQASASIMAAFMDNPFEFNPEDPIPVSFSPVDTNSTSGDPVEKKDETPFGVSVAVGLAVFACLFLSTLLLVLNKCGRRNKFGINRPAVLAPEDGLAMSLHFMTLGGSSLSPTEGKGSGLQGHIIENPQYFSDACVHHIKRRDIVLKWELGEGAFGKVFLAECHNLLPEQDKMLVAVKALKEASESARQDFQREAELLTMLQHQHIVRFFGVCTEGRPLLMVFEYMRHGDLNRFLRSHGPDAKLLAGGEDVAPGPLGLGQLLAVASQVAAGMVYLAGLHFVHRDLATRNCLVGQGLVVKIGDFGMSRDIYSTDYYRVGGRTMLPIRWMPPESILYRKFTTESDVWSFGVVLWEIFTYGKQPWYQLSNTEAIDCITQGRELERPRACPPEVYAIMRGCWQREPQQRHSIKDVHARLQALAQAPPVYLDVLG
In short: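 Mobility-shift kinase assay: 90 min reaction at room temperature, stopped with EDTA buffer; phosphorylated and non-phosphorylated fluorescent substrate measured, conversion ratio calculated. Inhibition % normalised between DMSO-only wells and no-TrkA wells.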

human TrkA [3] = target: T1, human TrkA; experiment: Test Example 2-2: Human TrkA Inhibition Assay; type: biochemical
In short: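 Kinase (1 nmol/L) pre-incubated 15 min at room temperature with compound, then FL-peptide 27 (1.5 μmol/L) and ATP ([…]) added for 120 min at 37 °C; EDTA stop. Phosphorylated and unphosphorylated substrate separated by mobility-shift readout; IC50 by logistic regression over 10 concentrations.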

[4] = Test Example 9: Metabolism Stability Test; type: in vitro ADME; details: human liver microsomes 0.5 mg protein/mL, 30 minutes, 37° C., 1 mmol/L NADPH
Protocol: as §1
as §2, with “LC/MS/MS,” for “LC/MS/MS or Solid Phase Extraction (SPE)/MS,”

[5] = human TrkA inhibition, class symbols A/B/C, read-out: IC50_nM

| remaining amount of compound after reaction [1] | IC50 (human TrkA [2]; human TrkA 2.5 nmol/L, ATP 500 μmol/L, 90 min at room temperature, read-out: TrkA inhibitory activity IC50) | IC50 (human TrkA [3]; human TrkA 1 nmol/L, 120 min at 37° C., read-out: TrkA inhibition IC50) | IC50 (human TrkA [2]; [5]) | IC50 (human TrkA [3]; [5]) | remaining amount of compound after reaction [4] | SMILES |
| --- | --- | --- | --- | --- | --- | --- |
| 90% | 0.029 µM | 0.16 µM | – | – | – | COCCN1C[C@@H](NC(=O)Nc2c(C)c(-c3cnn(C)c3)nn2-c2ccccc2)[C@H](c2cccc(O)c2)C1 (racemic) [Compound I-96] |
| 92% | – | – | < 0.1 µM | – | – | COCCN1C[C@@H](NC(=O)Nc2c(C)c(-c3cnn(C)c3)nn2-c2ccccc2)[C@H](c2ccc3ncsc3c2)C1 (racemic) [Compound I-107] |
| 104% | – | – | 0.1 to 1 µM | – | – | COCCN1C[C@@H](NC(=O)Nc2c(C)c(-c3cnn(C)c3)nn2-c2ccccc2)[C@H](c2ccc3c(c2)NC(=O)CO3)C1 (racemic) [Compound I-136] |
| – | – | – | – | 0.1 to 1 µM | 90% | COCCN1C[C@@H](NC(=O)Nc2c(C)c(-c3cnn(C)c3)nn2-c2ccccc2)[C@H](c2ccnc(C#N)c2)C1 (racemic) [Compound I-180] |
